Data from patent publication US8147872B2, “Pharmaceutical compositions of drugs and neutralized acidic polymers” (Bend Reseach, Inc., priority 2001, dated 2012).

Assays:
[1] = In vitro dissolution test of Drug 3 compositions in PBS with 0.5 wt % NaTC/POPC; type: physicochemical; settings: for Drug 3 Concentration: approx. 200 μg/mL if all dissolved
Procedure: (§1) For this test, 14.4 mg of the dispersion was added to a microcentrifuge tube for a total Drug 2 concentration of approximately 2000 μg/mL if all of the drug were to dissolve completely. The tube was placed in a 37° C. temperature-controlled chamber, and 1.8 mL PBS as pH 6.5 and 290 mOsm/kg was added. The samples were quickly mixed using a vortex mixer for about 60 seconds. The samples were centrifuged at 13,000 G at 37° C. for 1 minute. The resulting supernatant solution was then sampled and diluted 1:6 (by volume) with methanol and then analyzed by high-performance liquid chromatography (HPLC). The contents of the tubes were mixed on the vortex mixer and allowed to stand undisturbed at 37° C. until the next sample was taken. Samples were collected at 4, 10, 20, 40, 90, and 1200 minutes.
For these tests, 1.44 mg of each dispersion was added to a microcentrifuge tube containing PBS with 0.5 wt % sodium taurocholic acid and 1-palmitoyl-2-oleyl-sn-glycero-3-phosphocholine (“NaTC/POPC,” with a 4/1 weight ratio), for a total Drug 3 concentration of approximately 200 μg/mL if all of the drug were to dissolve completely. For Controls C5, C6, and C7 (with Drug 3B), 1.57 mg of each dispersion was added to PBS containing 0.5 wt % NaTC/POPC to yield approximately 200 μg/mL of active Drug 3. Control C8 consisted of 0.36 mg of crystalline Drug 3A. The dissolution tests were performed as described in Example 9.

[2] = In vitro dissolution test of Drug 2 compositions in PBS pH 6.5 (microcentrifuge method, HPLC); type: physicochemical; parameters: AUC90: tested at 2000 µg/mL
Procedure: as §1
For comparison, a Control C4 consisting of 3.6 mg of crystalline Drug 2 was added to PBS for a total concentration of 2000 μg/mL.
For this test, 14.4 mg of the dispersion was added to a microcentrifuge tube for a total Drug 2 concentration of approximately 2000 μg/mL if all of the drug were to dissolve completely. The dissolution test was performed as described in Example 9. Control C4 (consisting of 3.6 mg of crystalline Drug 2) is shown again for comparison.

Compound: O=C1Cc2cc(CCN3CCN(c4nsc5ccccc45)CC3)c(Cl)cc2N1 [Example C8, ziprazidone]
- Cmax90 ([1]; Drug 3): 2 µg/mL
- AUC ([1]; Drug 3, time 0 min): 0 µg·min/mL
- AUC ([1]; Drug 3, time 4 min): 0 µg·min/mL
- AUC ([1]; Drug 3, time 10 min): 0 µg·min/mL
- AUC ([1]; Drug 3, time 20 min): 0 µg·min/mL
- AUC ([1]; Drug 3, time 40 min): 0 µg·min/mL
- AUC ([1]; Drug 3, time 90 min): 100 µg·min/mL
- AUC ([1]; Drug 3, time 1200 min): 1,800 min * μg/mL
- AUC ([1]; Table 9, AUC90 according to the text, Drug 3): 100 µg·min/mL
- Drug 3 Concentration ([1]; time 0 min): 0 µg/mL
- Drug 3 Concentration ([1]; time 4 min): 1 µg/mL
- Drug 3 Concentration ([1]; time 10 min): 1 µg/mL
- Drug 3 Concentration ([1]; time 20 min): 1 µg/mL
- Drug 3 Concentration ([1]; time 40 min): 2 µg/mL
- Drug 3 Concentration ([1]; time 90 min): 1 µg/mL
- Drug 3 Concentration ([1]; time 1200 min): 2 µg/mL

Compound: O=C(N[C@@H](Cc1ccccc1)[C@@H](O)C(=O)N1C[C@@H](O)[C@@H](O)C1)c1cc2cc(Cl)ccc2[nH]1 [Example C4, 5-chloro-1H-indole-2-carboxylic acid[(1S)-benzyl-3-((3R,4S)-dihydroxypyrrolidin-1-yl)-(2R)-hydroxy-3-oxypropyl]amide]
- AUC90 ([2]; Drug 2, PBS pH 6.5, 37° C.): 10,300 min * μg/mL
- Cmax90 ([2]; Drug 2, PBS pH 6.5, 37° C.): 131 µg/mL
- AUC ([2]; Table 4, time 0 min, PBS pH 6.5, 37° C.): 0 µg·h/mL
- AUC ([2]; Table 4, time 4 min, PBS pH 6.5, 37° C.): 5 µg·h/mL
- AUC ([2]; Table 4, time 10 min, PBS pH 6.5, 37° C.): 16.7 µg·h/mL
- AUC ([2]; Table 4, time 20 min, PBS pH 6.5, 37° C.): 36.7 µg·h/mL
- AUC ([2]; Table 4, time 40 min, PBS pH 6.5, 37° C.): 75 µg·h/mL
- AUC ([2]; Table 4, time 90 min, PBS pH 6.5, 37° C.): 172 µg·h/mL
- AUC ([2]; Table 4, time 1200 min, PBS pH 6.5, 37° C.): 2000 µg·h/mL
- AUC ([2]; Table 5, AUC90 according to the text, PBS pH 6.5): 172 µg·h/mL
- Drug 2 Concentration ([2]; Table 5, Cmax90 according to the text, PBS pH 6.5): 131 µg/mL
- AUC ([2]; time 0 min, PBS pH 6.5, 37° C.): 0 µg·h/mL
- Drug 2 Concentration ([2]; time 0 min, PBS pH 6.5, 37° C., approx. 2000 μg/mL if all dissolved): 0 µg/mL
- AUC ([2]; time 4 min, PBS pH 6.5, 37° C.): 5 µg·h/mL
- Drug 2 Concentration ([2]; time 4 min, PBS pH 6.5, 37° C., approx. 2000 μg/mL if all dissolved): 131 µg/mL
- AUC ([2]; time 10 min, PBS pH 6.5, 37° C.): 1,000 min * μg/mL
- Drug 2 Concentration ([2]; time 10 min, PBS pH 6.5, 37° C., approx. 2000 μg/mL if all dissolved): 114 µg/mL
- AUC ([2]; time 20 min, PBS pH 6.5, 37° C.): 2,200 min * μg/mL
- Drug 2 Concentration ([2]; time 20 min, PBS pH 6.5, 37° C., approx. 2000 μg/mL if all dissolved): 124 µg/mL
- AUC ([2]; time 40 min, PBS pH 6.5, 37° C.): 4,500 min * μg/mL
- Drug 2 Concentration ([2]; time 40 min, PBS pH 6.5, 37° C., approx. 2000 μg/mL if all dissolved): 107 µg/mL
- AUC ([2]; time 90 min, PBS pH 6.5, 37° C.): 10,300 min * μg/mL
- Drug 2 Concentration ([2]; time 90 min, PBS pH 6.5, 37° C., approx. 2000 μg/mL if all dissolved): 126 µg/mL
- AUC ([2]; time 1200 min, PBS pH 6.5, 37° C.): 120,200 min * μg/mL
- Drug 2 Concentration ([2]; time 1200 min, PBS pH 6.5, 37° C., approx. 2000 μg/mL if all dissolved): 72 µg/mL
